Measurements reported in publication PMC3384240, “Related bifunctional restriction endonuclease-methyltransferase triplets: TspDTI, Tth111II/TthHB27I and TsoI with distinct specificities” (BMC Molecular Biology, 2012).

Molecular target: T1, TspDTI (Thermus sp. DT, UniProt A8QN47)
T1 construct: recombinant from E. coli DH11S [pRZ-TspDTI], one extra Ala codon (GCG) after the start Met; native enzyme from Thermus sp; DT also purified; monomer; N-terminus […]
Assay: lambda DNA cleavage, agarose gel
Format: biochemical
Details: Mg2+ restriction buffer, 70 C, 30 min, allosteric activator (site not established)

T1 sequence (A8QN47 entry or part of it): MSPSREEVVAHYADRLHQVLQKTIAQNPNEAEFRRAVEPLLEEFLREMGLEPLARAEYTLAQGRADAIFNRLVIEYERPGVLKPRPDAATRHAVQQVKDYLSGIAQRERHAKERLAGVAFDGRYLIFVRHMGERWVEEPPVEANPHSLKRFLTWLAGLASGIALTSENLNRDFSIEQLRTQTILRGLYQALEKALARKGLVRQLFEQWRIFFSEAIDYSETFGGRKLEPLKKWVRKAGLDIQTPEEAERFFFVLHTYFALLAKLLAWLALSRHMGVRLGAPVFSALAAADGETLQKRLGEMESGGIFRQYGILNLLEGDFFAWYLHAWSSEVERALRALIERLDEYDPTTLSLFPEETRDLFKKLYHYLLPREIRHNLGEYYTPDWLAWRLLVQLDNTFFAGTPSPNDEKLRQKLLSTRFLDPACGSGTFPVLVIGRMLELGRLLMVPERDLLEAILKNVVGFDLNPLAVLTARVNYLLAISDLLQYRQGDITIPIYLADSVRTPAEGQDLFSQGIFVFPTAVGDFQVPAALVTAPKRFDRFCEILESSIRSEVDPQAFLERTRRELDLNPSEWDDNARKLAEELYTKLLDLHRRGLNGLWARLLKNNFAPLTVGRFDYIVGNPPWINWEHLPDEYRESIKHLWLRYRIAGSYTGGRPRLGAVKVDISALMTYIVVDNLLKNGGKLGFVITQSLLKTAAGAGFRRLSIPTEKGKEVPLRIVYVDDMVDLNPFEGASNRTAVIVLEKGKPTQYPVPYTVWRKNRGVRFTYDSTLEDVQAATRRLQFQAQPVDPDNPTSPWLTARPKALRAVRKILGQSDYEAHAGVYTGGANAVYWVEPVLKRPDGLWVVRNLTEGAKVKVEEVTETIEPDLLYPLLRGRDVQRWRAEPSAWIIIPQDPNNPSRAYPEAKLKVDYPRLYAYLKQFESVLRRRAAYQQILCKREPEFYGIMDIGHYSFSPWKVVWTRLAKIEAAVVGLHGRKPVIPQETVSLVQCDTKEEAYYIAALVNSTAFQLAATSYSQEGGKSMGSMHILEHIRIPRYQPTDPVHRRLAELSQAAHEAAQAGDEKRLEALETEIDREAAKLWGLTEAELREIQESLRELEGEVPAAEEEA

Structure (SMILES)	lambda DNA cleavage, agarose gel (stimulates REase at 50 uM SAM, also methyl donor of the MTase activity (200 uM))	lambda DNA cleavage, agarose gel (stimulates REase at 50 uM SIN, SAM analogue, not a methyl donor)
C[S+](CC[C@H](N)C(=O)O)C[C@H]1O[C@@H](n2cnc3c(N)ncnc32)[C@H](O)[C@@H]1O (some centres unmarked) [SAM]	is stimulated equally by both SAM and its analogue - SIN	–
Nc1ncnc2c1ncn2[C@@H]1O[C@H](C[C@@H](N)CC[C@H](N)C(=O)O)[C@@H](O)[C@H]1O [SIN]	–	is stimulated equally by both SAM and its analogue - SIN
